Data published in PMC12195836, “From Ethnopharmacology to Active Compound: Effects of Traditional Plant Extracts on Varicose Vein-Related Enzymes and Isolation of Active Flavonoids from Helichrysum plicatum DC. subsp. plicatum” (Pharmaceuticals, 2025).
Where two headings read alike, the source gives them in different places. One block for each molecule: values may come before it.

Legend:
xanthine oxidase (XO) = xanthine oxidase (XO) (Homo sapiens, UniProt P47989); experiment: XO enzyme inhibition, spectrophotometric (uric acid formation at 295 nm); assay type: biochemical
Method: (§1) All plant samples were macerated using 80% ethanol at room temperature for 5 days. Subsequently, filter paper was used to filter the samples, and the remaining filtrate was evaporated to dryness in a rotary evaporator (Büchi, Flawil, Switzerland). The extracts were weighed and dissolved in dimethyl sulfoxide (DMSO) to reach a concentration of 2 mg/mL, which was used in the in vitro experiments.
(§2) The enzyme inhibition assays conducted in this study included elastase, collagenase, hyaluronidase, XO, and prolyl POP inhibition and were performed using an ELISA microplate reader (Spectramax i3x microplate reader with Softmax® Pro Software for Windows 10; Molecular Devices, San Jose, USA).

XO = settings: cited from earlier work
LOX = tested on: LOX; design: method as in PMID 27316769; settings: dose-dependent; read-out: LOX inhibition IC50; cited from earlier work
POP enzyme = settings: cited from earlier work
hyaluronidase = experiment: Hyaluronidase enzyme inhibition assay; assay type: biochemical
Method: as §1, §2

collagenase = experiment: Collagenase inhibition, modified spectrophotometric method; assay type: biochemical
Method: as §1
The enzyme inhibition assays conducted in this study included elastase, collagenase, hyaluronidase, XO, and prolyl POP inhibition and were performed using an ELISA microplate reader (Spectramax i3x microplate reader with Softmax® Pro Software for Windows 10; Molecular Devices, San Jose, USA). Elastase inhibition by the extracts was assessed using a modified spectrophotometric method based on Kraunsoe et al. (1996) and Lee et al. (2009). Collagenase inhibition was evaluated using the modified spectrophotometric method by Barrantes and Guinea 2003 [67], which was originally developed by Wart and Steinbrink (1981). The LOX inhibitory activities of the extracts were determined following the method of Chung et al. (2009), with minor modifications. XO inhibition was measured spectrophotometrically by monitoring the absorbance at 295 nm from uric acid formed during an enzymatic reaction. […]

[1] = Nitric oxide radical-scavenging activity
Method: as §1
The determination of the superoxide radical (O2^•−)-scavenging effect was conducted using the method described by Duh et al.. To assess the nitric oxide (NO)-scavenging effect, the method of Sreejayan and Rao was utilised with some modifications.

[2] = design: method as in earlier work; settings: cited from earlier work

Chain of xanthine oxidase (XO) (P47989 whole entry, species assumed): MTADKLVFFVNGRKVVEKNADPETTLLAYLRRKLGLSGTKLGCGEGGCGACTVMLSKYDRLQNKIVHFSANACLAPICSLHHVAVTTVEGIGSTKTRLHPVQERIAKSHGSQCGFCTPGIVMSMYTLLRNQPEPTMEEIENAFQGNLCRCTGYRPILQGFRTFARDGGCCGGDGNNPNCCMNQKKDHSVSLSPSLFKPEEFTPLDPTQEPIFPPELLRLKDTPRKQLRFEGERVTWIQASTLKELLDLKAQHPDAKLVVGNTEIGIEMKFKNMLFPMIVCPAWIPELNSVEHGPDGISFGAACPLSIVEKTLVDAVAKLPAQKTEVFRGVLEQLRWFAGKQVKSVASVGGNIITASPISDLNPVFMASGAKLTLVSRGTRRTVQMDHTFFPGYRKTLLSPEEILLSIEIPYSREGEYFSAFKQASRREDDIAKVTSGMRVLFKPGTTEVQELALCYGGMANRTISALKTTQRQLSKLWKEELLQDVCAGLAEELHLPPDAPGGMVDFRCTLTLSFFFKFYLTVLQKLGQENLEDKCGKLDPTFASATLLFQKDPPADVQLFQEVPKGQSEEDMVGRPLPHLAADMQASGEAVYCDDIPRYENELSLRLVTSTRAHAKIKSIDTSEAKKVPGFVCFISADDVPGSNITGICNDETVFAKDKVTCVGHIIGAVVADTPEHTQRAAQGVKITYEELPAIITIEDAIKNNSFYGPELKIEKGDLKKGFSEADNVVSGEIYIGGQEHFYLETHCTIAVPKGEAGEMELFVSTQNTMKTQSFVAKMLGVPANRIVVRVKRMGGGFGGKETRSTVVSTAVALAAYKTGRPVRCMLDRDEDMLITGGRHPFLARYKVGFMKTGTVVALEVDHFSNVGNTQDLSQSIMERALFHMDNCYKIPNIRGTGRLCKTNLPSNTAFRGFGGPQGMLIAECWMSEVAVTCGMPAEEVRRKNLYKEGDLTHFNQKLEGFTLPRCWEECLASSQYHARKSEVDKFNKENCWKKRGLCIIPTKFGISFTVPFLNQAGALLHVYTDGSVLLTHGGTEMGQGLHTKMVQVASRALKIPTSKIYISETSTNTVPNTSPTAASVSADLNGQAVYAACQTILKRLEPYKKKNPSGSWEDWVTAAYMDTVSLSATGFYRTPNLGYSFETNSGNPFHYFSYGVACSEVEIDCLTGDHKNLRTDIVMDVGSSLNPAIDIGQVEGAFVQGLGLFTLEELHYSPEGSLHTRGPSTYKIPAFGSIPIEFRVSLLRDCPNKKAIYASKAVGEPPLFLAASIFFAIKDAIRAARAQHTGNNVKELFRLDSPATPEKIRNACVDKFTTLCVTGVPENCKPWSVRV

Molecule: Oc1ncnc2[nH]ncc12 [allopurinol, reference compound]
- inhibition at 25 µg/mL (xanthine oxidase (XO); read-out: XO Enzyme Inhibition (% Inhibition ± S.D.)): 91.6 ± 1.3%
- inhibition at 500 µg/mL (xanthine oxidase (XO); read-out: XO Enzyme Inhibition (% Inhibition ± S.D.), reference): 91.6 ± 1.3%
- IC50 (XO; read-out: XO inhibition IC50): 4.05 µM

Molecule: Oc1ccc2c(c1)OCO2 [sesamol]
- IC50 (LOX): 51.8 µM

Molecule: O=c1cc(-c2ccc(O)c(O)c2)oc2cc(O)cc(O)c12 [luteolin]
- IC50 (xanthine oxidase (XO)): 49.8 µM
- IC50 (XO; flavonoids isolated from Blumea balsamifera L., read-out: XO inhibitory activity IC50): 2.38 ± 0.01 µM
- IC50 (XO; read-out: XO inhibition IC50): 0.96 µM
- POP inhibition IC50 (POP enzyme): 0.17 ppm

Molecule: O=c1cc(-c2ccc(O)cc2)oc2cc(O)cc(O)c12 [apigenin]
- IC50 (xanthine oxidase (XO)): 40.1 µM
- IC50 (XO; competitive inhibitor, read-out: XO inhibition IC50): 3.57 µM

Molecule: c1cnc2c(c1)ccc1cccnc12 [1,10-phenanthroline]
- Collagenase inhibition IC50 (collagenase): 27.95 ± 0.3 mg/L
- Collagenase Enzyme Inhibition (% Inhibition ± S.D.), reference (collagenase; References (1 mg/mL)): 87.39 ± 2.85%

Molecule: COc1ccc2cc3[n+](cc2c1OC)CCc1cc2c(cc1-3)OCO2 [berberine]
- IC50 (POP enzyme; read-out: POP inhibition IC50): 142 ± 21.5 µM

Molecule: O=c1c(O)c(-c2ccc(O)c(O)c2)oc2cc(O)cc(O)c12 [quercetin]
- NO radical-scavenging activity IC50 [2]: 160 ± 10 mg/L

Further lines, with some results ahead:

- Hyaluronidase inhibition IC50 (hyaluronidase): 2.31 ± 0.73 mg/L
- Hyaluronidase Enzyme Inhibition (% Inhibition ± S.D.), reference (hyaluronidase; References (1 mg/mL)): 92.51 ± 3.53%
Molecule: tannic acid

- IC50 (xanthine oxidase (XO)): 130 µM
Molecule: O=C1C[C@@H](c2ccc(O)cc2)Oc2cc(O)cc(O)c21 [naringenin]
- inhibitory activity against XO (in words) (XO): moderate inhibitory activity
- IC50 (XO; read-out: XO inhibition IC50): 4.57 µM
- inhibitory activity against the POP enzyme (in words) (POP enzyme): did not exhibit inhibitory activity

- Nitric oxide radical-scavenging IC50 [1]: 25.28 ± 2.98 mg/L
Molecule: O=C1O[C@H]([C@@H](O)CO)C(O)=C1O [Vitamin C]
- Nitric Oxide Radical-Scavenging Activity (% Inhibition ± S.D.), reference ([1]; Vitamin C (1 mg/mL)): 92.72 ± 0.10%
